Experimental data published in EP2662079A1 (Ordway Research Institute, Inc., priority 2012, dated 2013).
Values joined by “and” are separate entries in the source; they are usually repeats but may differ in a detail not shown here. Equal values may be shown once.

What was measured:
[1] = tested on: GL261 murine brain tumor cells; experiment: GL261 growth curve, cell size and colony forming efficiency; format: cell-based
Experimental: 1 x 10^5 cells per 25 cm^2 flask at time zero (density 40 cells/mm^2). Three flasks were utilized at each time period. The medium in the flasks was not changed over the duration of the growth curve (unfed cultures). Data were taken daily from day zero to day 11.5 post-seeding and cell numbers, age distributions, and apoptotic percentages were determined. After growth curve shapes (without and with 2 µM Tetrac) were determined, irradiation times at 70 and 270 hour post-seeding were chosen.
To obtain exponential and plateau phase cell numbers, we trypsinized ([…] trypsin-EDTA) cells for 5 min at 37°C.
For determination of CCDTs, the cell numbers per flask were determined on a daily basis. A four-day interval in the exponential region of growth to obtain the CCDTs, yielding a total of 12 estimations for analysis was utilized. A regression analysis was performed using the (log) of the cell number versus the linear time in days (SigmaPlot, V. 10, Systat Software, Inc., Point Richmond, CA). The log slope value and its standard error (SE) were determined, and the SE was converted to the 95% confidence limits using a two-tailed t-table at N-1 degrees of freedom where N is the number of samples. (See Goldstein, A. In: Biostatistics, New York, The MacMillan Co., 1964, p. 140-146).

[2] = tested on: SKN-SH, SaOS2, and MCF7 cells; experiment: Proliferation of drug-sensitive and drug-resistant cancer cells (MTT assay); format: cell-based
Excerpt: Cells were harvested and nuclear fractions prepared as described previously. Nucleoproteins, separated by gel electrophoresis, were immunoblotted with antibody to phosphorylated MAPK (pERK1 and pERK2, 44 and 42 kDa, respectively), followed by a second antibody linked to a luminescence-detection system. A β-action immunoblot of nuclear fractions serves as a control for gel loading in each part of this figure. […] The levels of FGF2 cDNA, shown in the top blot, were corrected for variations in GAPDH cDNA content, shown in the bottom blot, and the corrected levels of FGF2 are illustrated below in the graph (mean ±SE of mean; n = 2 experiments). […] Drug-sensitive and -resistant SKN-SH (Figures 13C-D), SaOS2 (Figures 13A-B), and MCF7 (Figures 13E-F) cells were subjected to treatment with increasing concentrations of Tetrac or Doxirubicin over a period of 4 days. Cell viability was then measured by MTT assay. […] The cells were treated for 24 h with each drug alone or the combination of both, after that, expression of drug resistance molecules was determined by Western blot using specific antibodies. […] The cells were incubated for 24 hours with doxorubicin in the absence or the presence of Tetrac, after that they were washed and then solubilized. […]

[3] = tested on: Matrigel plugs; experiment: Mouse Matrigel model of angiogenesis (plug hemoglobin); format: in vivo, mice (C57BL/6NCr)
Experimental: Normal male mice (C57BL/6NCr) 6-8 weeks of age and weighing ~20 g were purchased from Taconic farm. Animals were housed 4 per cage, in controlled conditions of temperature (20-24 °C); humidity (60-70%) and 12 hrs. light/dark cycle provided with food and water ad libitum. […] Matrigel (BD Bioscience, San Jose CA) was thawed overnight at 4 °C and placed on ice. Aliquots of matrigel were placed into cold polypropylene tubes to prevent the matrigel from solidifying and the angiogenesis promoter added to matrigel with or without agonist. Mice were treated daily. Matrigel was subcutaneously injected as triple injection per animal at 100 µL/animal. At day 14 post plug implant all animals were killed in CO2 chamber and matrigel plugs were collected. […]
The matrigel plugs dissected from the mice were carefully stripped of any remaining peritoneum. The plugs were placed into 0.5 mL tube of ddH2O and homogenized for 5-10 min. […] Absorbance was read with a Microplate Manager ELISA reader at 540 nm. […] Hemoglobin concentration is a reflection of the number of blood vessels in the plugs.

[4] = tested on: MCF7/R cells; experiment: Growth of doxorubicin-resistant tumors in nude mice; format: in vivo; details: Tetrac 30 mg/kg (Figure 17)
[5] = tested on: GL261 cells; experiment: Potentially lethal damage repair (PLDR); format: cell-based, murine
Experimental: PLDR was also measured using the 10% survival level in both control and Tetrac treated-cells, and was also done for both exponentially growing and plateau phase cells. The total 10% survival dose was given, and then cells were placed back into the 37°C incubator for various periods of time. At 0, 0.5, 1.0, 1.5, 2.0, 3.0, 4.0, 6.0, 8.0, and 10.0 hours, flasks were removed, and processed for survival assessment.
To investigate the effects of Tetrac on SLDR and PLDR, cells were chosen that had been given a one-hour treatment with Tetrac at two different times, i.e., at 70 and 270 hours post-seeding).

[6] = tested on: U87MG cells; experiment: Colony forming efficiency and flow cytometry; format: cell-based, human; details: Tetrac for 1 h at 37°C
Experimental: U87MG cells were seeded at 10^6 cells/100 mm^2 dish and incubated at 37°C for 24 h. Adherent cells were trypsinized and washed once in ambient temperature PBS. Cells were then fixed in 70% ethanol, and stored overnight at 4°C. Cells were prepared for cell cycle analysis by first pelleting the cells (1000 rpm, 7 min, 4°C), and then resuspending the pellet in 1 mL of PBS containing 0.2 mg/mL propidium iodide (Boehringer Mannheim, Indianapolis, IN), with incubation in the dark for 30 min. Cells were then left overnight at 4°C in the dark. Cells were analyzed on a Coulter fluorescence-activated cell sorter (Coulter Electronics, Hialeah, FL). Cells were excited with a single 488 nm argon laser, and the resulting fluorescence was detected using a 585 nm filter. Linear red-orange FL3 data were collected (10,000 events per collection). The distribution of cells within the cell cycle was determined using a Coulter software program.

O=C(O)Cc1cc(I)c(Oc2cc(I)c(O)c(I)c2)c(I)c1 [Tetrac, 3,3',5,5'-tetraiodothyroacetic acid]
saturation density of control cells relative to Tetrac-treated cells [1]: approximately 2.4 times
cell doubling time ([1]; Tetrac-treated GL261 cells, 2 µM, exponential growth): 43.8 ± 3.8 h and 43.8 h
anti-proliferative activity in vitro against drug-sensitive and drug-resistant cells ([2]; 4 days, MTT (Figure 13)): equivalent
cellular responses to doxorubicin, etoposide, cisplatin and TSA when combined with Tetrac ([2]; resistant SKN-SH/R, MCF7/R and SaOS2/R cells (Figure 14)): significantly enhanced
Hemoglobin (mg/mL)± SEM ([3]; FGF 100 ng + compound 10 µg/plug, n= 7-14): 0.5 ± 0.1 mg/mL
Mean inhibition of angiogenesis (%) ([3]; FGF-induced angiogenesis, 10 µg/plug): 85%
Hemoglobin (mg/mL)± SEM ([3]; T4 + antagonist, each 10 µg/matrigcl plug): 0.4 ± 0.1 mg/mL
growth of drug resistant tumors in nude mice [4]: effective in suppressing the growth
factor by which Tetrac inhibited PLDR ([5]; exponential cells): 1.9
factor by which Tetrac decreased PLDR expression ([5]; plateau phase cells): 3.4
G1 ([6]; flow cytometry): 58.2 (± 12.2) %
G2/M ([6]; flow cytometry): 24.8 (± 2.8) %
S ([6]; flow cytometry): 15.4 (± 9.1) %
sub-G1 population ([6]; flow cytometry): 1.5 (± 0.2) %
colony forming efficiency ([6]; mean and 95% confidence limits): 26.0 (± 6.1) %
